Experimental data reported in patent US11524940B1, “Inhibitors of cysteine proteases and methods of use thereof” (priority 2020, dated 2022).
Read-outs that look alike come from different tables or passages of the source.

Target: 229E Mpro (Human coronavirus 229E (HCoV-229E), UniProt P0C6X1)
Experiment: 229E Mpro activity
Format: biochemical
Experimental: Compounds are assayed using standard methods to assess compound activity and IC50. […] The assay buffer contains 20 mM of Tris-HCl (pH 7.3), 100 mM of NaCl, 1 mM of EDTA, 5mM of TCEP and 0.1% BSA.

Chain of 229E Mpro (P0C6X1 2966-3267 limits assumed): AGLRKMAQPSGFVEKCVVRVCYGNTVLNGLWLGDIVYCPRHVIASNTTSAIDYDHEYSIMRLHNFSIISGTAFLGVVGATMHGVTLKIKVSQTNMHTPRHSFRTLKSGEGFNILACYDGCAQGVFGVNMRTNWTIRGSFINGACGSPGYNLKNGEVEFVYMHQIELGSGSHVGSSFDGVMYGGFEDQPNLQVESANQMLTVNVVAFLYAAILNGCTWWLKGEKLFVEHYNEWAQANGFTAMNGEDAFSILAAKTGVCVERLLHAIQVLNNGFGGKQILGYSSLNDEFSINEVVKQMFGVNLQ

SMILES | EC50 (read-out: 229E Mpro EC50) | EC50 (229E Mpro EC50)
COc1cccc2[nH]c(C(=O)N[C@@H](CC(C)C)C(=O)NC(C#N)Cc3cc(=O)[nH]c4ccccc34)cc12 (mixture of isomers) [Compound 237, N-[(1S)-1-[[1-cyano-2-(2-oxo-1H-quinolin-4-yl)ethyl]carbamoyl]-3-methyl-butyl]-4-methoxy-1H-indole-2-carboxamide] | > 30000 nM | 
COc1cccc2[nH]c(C(=O)N[C@@H](CC(C)C)C(=O)NC(C#N)Cc3cc[nH]n3)cc12 (mixture of isomers) [Compound 241, N-[(1S)-1-[[1-cyano-2-(1H-pyrazol-3-yl)ethyl]carbamoyl]-3-methyl-butyl]-4-methoxy-1H-indole-2-carboxamide] | > 30000 nM | 
COc1cccc2[nH]c(C(=O)N[C@@H](CC(C)C)C(=O)NC(C#N)Cc3n[nH]c4ccccc34)cc12 (mixture of isomers) [Compound 245, N-[(1S)-1-[[1-cyano-2-(1H-indazol-3-yl)ethyl]carbamoyl]-3-methyl-butyl]-4-methoxy-1H-indole-2-carboxamide] | > 30000 nM | 
COc1cccc2[nH]c(C(=O)N[C@@H](CC(C)C)C(=O)NC(C#N)CC3CC(=O)Nc4ccccc43)cc12 (mixture of isomers) [Compound 249, N-[(1S)-1-[[1-cyano-2-(2-oxo-3,4-dihydro-1H-quinolin-4-yl)ethyl]carbamoyl]-3-methyl-butyl]-4-methoxy-1H-indole-2-carboxamide] | > 30000 nM | 
COc1cccc2[nH]c(C(=O)N[C@@H](CC3CC3)C(=O)NC(C#N)CN3CCNC3=O)cc12 (mixture of isomers) [Compound 493, N-[(1S)-2-[[1-cyano-2-(2-oxoimidazolidin-1-yl)ethyl]amino]-1-(cyclopropylmethyl)-2-oxo-ethyl]-4-methoxy-1H-indole-2-carboxamide] | > 30000 nM | 
COc1cccc2[nH]c(C(=O)N[C@@H](CC(C)C)C(=O)N[C@@H](C[C@@H]3CCNC3=O)C(C#N)NC(C)(C)C)cc12 (single isomer, unassigned) [323 (Isomer 1)] | < 2000 nM | 
COc1cccc2[nH]c(C(=O)N[C@@H](CC(C)C)C(=O)N[C@@H](C[C@@H]3CCNC3=O)C(C#N)NC(C)(C)C)cc12 (single isomer, unassigned) [323 (Isomer 2)] | < 2000 nM | 
COc1cccc2[nH]c(C(=O)N[C@@H](CC(C)C)C(=O)N[C@@H](C[C@@H]3CCNC3=O)C(C#N)N3CCCC3)cc12 (single isomer, unassigned) [331 (Isomer 1)] | < 2000 nM | 
COc1cccc2[nH]c(C(=O)N[C@@H](CC(C)C)C(=O)N[C@@H](C[C@@H]3CCNC3=O)C(C#N)N3CCCC3)cc12 (single isomer, unassigned) [331 (Isomer 2)] | < 2000 nM | 
COc1cccc2[nH]c(C(=O)N3C[C@H](c4ccccc4)C[C@H]3C(=O)N[C@@H](C[C@@H]3CCNC3=O)C(O)C#N)cc12 (single isomer, unassigned) [345 (Isomer 1)] | < 2000 nM | 
COc1cccc2[nH]c(C(=O)N3C[C@H](c4ccccc4)C[C@H]3C(=O)N[C@@H](C[C@@H]3CCNC3=O)C(O)C#N)cc12 (single isomer, unassigned) [345 (Isomer 2)] | < 2000 nM | 
CC(C)C[C@H](NC(=O)CC(C)(O)c1ccc(Cl)cc1)C(=O)N[C@H](C#N)C[C@@H]1CCNC1=O (single isomer, unassigned) [365 (Isomer 1)] | 2000 to 10000 nM | 
CC(C)C[C@H](NC(=O)CC(C)(O)c1ccc(Cl)cc1)C(=O)N[C@H](C#N)C[C@@H]1CCNC1=O (single isomer, unassigned) [365 (Isomer 2)] | 2000 to 10000 nM | 
COc1cccc2[nH]c(C(=O)N3CC(C45CC(C4)C5)C[C@H]3C(=O)N[C@H](C#N)C[C@@H]3CCNC3=O)cc12 (single isomer, unassigned) [385 (Isomer 1)] | < 2000 nM | 
COc1cccc2[nH]c(C(=O)N3CC(C45CC(C4)C5)C[C@H]3C(=O)N[C@H](C#N)C[C@@H]3CCNC3=O)cc12 (single isomer, unassigned) [385 (Isomer 2)] | < 2000 nM | 
COc1cccc2[nH]c(C(=O)N3CC4(CCCCC4)CC3C(=O)N[C@H](C#N)C[C@@H]3CCNC3=O)cc12 (single isomer, unassigned) [389A (Isomer 1)] | < 2000 nM | 
COc1cccc2[nH]c(C(=O)N3CC(C)(C)C[C@H]3C(=O)N[C@H](C#N)C[C@@H]3CCNC3=O)cc12 (single isomer, unassigned) [395 (Isomer 1)] | < 2000 nM | 
COc1cccc2[nH]c(C(=O)N3CC(C)(C)C[C@H]3C(=O)N[C@H](C#N)C[C@@H]3CCNC3=O)cc12 (single isomer, unassigned) [395 (Isomer 2)] | < 2000 nM | 
COc1cccc2[nH]c(C(=O)N3CC4(CCC4)CC3C(=O)N[C@H](C#N)C[C@@H]3CCNC3=O)cc12 (single isomer, unassigned) [399A (Isomer 1)] | < 2000 nM | 
COc1cccc2[nH]c(C(=O)N3CC4(CCCC4)C[C@H]3C(=O)N[C@H](C#N)C[C@@H]3CCNC3=O)cc12 (single isomer, unassigned) [401 (Isomer 1)] | < 2000 nM | 
COc1cccc2[nH]c(C(=O)N3CC4(CCCC4)C[C@H]3C(=O)N[C@H](C#N)C[C@@H]3CCNC3=O)cc12 (single isomer, unassigned) [401 (Isomer 2)] | 2000 to 10000 nM | 
N#C[C@H](C[C@@H]1CCNC1=O)NC(=O)[C@@H](CC1CC1)n1cccc(NCC(F)(F)F)c1=O (single isomer, unassigned) [467 (Isomer 1)] | 2000 to 10000 nM | 
N#C[C@H](C[C@@H]1CCNC1=O)NC(=O)[C@@H](CC1CC1)n1cccc(NCC(F)(F)F)c1=O (single isomer, unassigned) [467 (Isomer 2)] | > 30000 nM | 

SMILES | EC50 (read-out: 229E Mpro EC50) | EC50 (229E Mpro EC50)
CC(C)(C)OC(=O)N1CCCCC12CCN(C(CC1CC1)C(=O)N[C@H](C#N)C[C@@H]1CCNC1=O)C2=O (single isomer, unassigned) [473 (Isomer 2)] | > 30000 nM | 
COc1cccc2[nH]c(C(=O)N[C@@H](CC3CC3)C(=O)N[C@@]3(C#N)C[C@H]4CC[C@@H]3[C@H]3C(=O)NC(=O)[C@@H]43)cc12 (single isomer, unassigned) [489 (Isomer 1)] | > 30000 nM | 
COc1cccc2[nH]c(C(=O)N[C@@H](CC3CC3)C(=O)N[C@H](C#N)C[C@@H]3CCCNC3=O)cc12 (single isomer, unassigned) [491 (Isomer 1)] | < 2000 nM | 
COc1cccc2[nH]c(C(=O)N[C@@H](CC3CC3)C(=O)N[C@@H](C#N)C[C@@H]3CCCNC3=O)cc12 (single isomer, unassigned) [491 (Isomer 2)] | > 30000 nM | 
COc1cccc2[nH]c(C(=O)N[C@H](CC3CC3)C(=O)N[C@@H](C#N)C[C@@H]3CCCNC3=O)cc12 (single isomer, unassigned) [491 (Isomer 4)] | < 2000 nM | 
N#C[C@]1(NC(=O)[C@H](CC2CC2)NC(=O)OCc2ccccc2)C[C@H]2CC[C@@H]1[C@H]1C(=O)NC(=O)[C@@H]21 (single isomer, unassigned) [495 (Isomer 1)] | > 30000 nM | 
CC(C)(C)OC(=O)Nc1cccn([C@H](CC2CC2)C(=O)N[C@H](C#N)C[C@@H]2CCNC2=O)c1=O (single isomer, unassigned) [505 (Isomer 1)] | > 30000 nM | 
CC(C)(C)OC(=O)Nc1cccn([C@@H](CC2CC2)C(=O)N[C@H](C#N)C[C@@H]2CCNC2=O)c1=O (single isomer, unassigned) [505 (Isomer 2)] | > 30000 nM | 
COc1cccc2[nH]c(C(=O)N[C@@H](CC(C)C)C(=O)N[C@@H](CC3CCNC3=O)C(C#N)NCc3ccccc3)cc12 (single isomer, unassigned) [507 (Isomer 2.1)] | < 2000 nM | 
CCNC(C#N)[C@H](C[C@@H]1CCNC1=O)NC(=O)[C@H](CC(C)C)NC(=O)c1cc2c(OC)cccc2[nH]1 (single isomer, unassigned) [511 (Isomer 1)] | < 2000 nM | 
CCNC(C#N)[C@H](C[C@@H]1CCNC1=O)NC(=O)[C@H](CC(C)C)NC(=O)c1cc2c(OC)cccc2[nH]1 (single isomer, unassigned) [511 (Isomer 2)] | < 2000 nM | 
Cc1ccn(C(CC2CC2)C(=O)N[C@H](C#N)C[C@@H]2CCNC2=O)c(=O)c1NC(=O)OC(C)(C)C (single isomer, unassigned) [591 (Isomer 2)] | > 30000 nM | 
COc1cccc2[nH]c(C(=O)N3CC4(CCCCC4)CC3C(=O)N[C@H](C#N)C[C@@H]3CCCNC3=O)cc12 (single isomer, unassigned) [603a (Isomer 1)] | < 2000 nM | 
COc1cccc2[nH]c(C(=O)N[C@@H](CC(C)C)C(=O)N[C@@H](C[C@@H]3CCNC3=O)C(C#N)NCC(=O)O)cc12 (single isomer, unassigned) [653 (Isomer 1)] | < 2000 nM | 
COc1cccc2[nH]c(C(=O)N[C@@H](CC(C)C)C(=O)N[C@@H](C[C@@H]3CCNC3=O)C(C#N)NCC(=O)O)cc12 (single isomer, unassigned) [653 (Isomer 2)] | < 2000 nM | 
COc1cccc2[nH]c(C(=O)N3CC4(CCC4)CC3C(=O)N[C@H](C#N)C[C@@H]3CCCNC3=O)cc12 (single isomer, unassigned) [719 (Isomer 2)] | < 2000 nM | 
COc1cccc2[nH]c(C(=O)N3CC4(CC3C(=O)N[C@H](C#N)C[C@@H]3CCCNC3=O)CC(F)(F)C4)cc12 (single isomer, unassigned) [723 (Isomer 1)] |  | 10000 to 30000 nM
N#C[C@H](C[C@@H]1CCCNC1=O)NC(=O)C1CC2(CCC2)CN1C(=O)c1cc2cccc(Cl)c2[nH]1 (single isomer, unassigned) [729 (Isomer 1)] | < 2000 nM | 
N#C[C@H](C[C@@H]1CCCNC1=O)NC(=O)C1CC2(CCC2)CN1C(=O)c1cc2cccc(Cl)c2[nH]1 (single isomer, unassigned) [729 (Isomer 2)] | < 2000 nM | 
COCCOCCOc1cccc2[nH]c(C(=O)NC(CC(C)(C)C)C(=O)NC(C#N)CC3CCCNC3=O)cc12 (single isomer, unassigned) [875 (Isomer 1)] | < 2000 nM | 
COCCOCCOc1cccc2[nH]c(C(=O)NC(CC(C)(C)C)C(=O)NC(C#N)CC3CCCNC3=O)cc12 (single isomer, unassigned) [875 (Isomer 2)] |  | < 2000 nM
COCCOCCOc1cccc2[nH]c(C(=O)NC(CC(C)(C)C)C(=O)NC(C#N)CC3CCCNC3=O)cc12 (single isomer, unassigned) [875 (Isomer 3)] | 10000 to 30000 nM | 
N#C[C@H](C[C@@H]1CCNC1=O)NC(=O)C1CC2(CCCCC2)CN1C(=O)c1cc2ccc(Cl)cc2[nH]1 (single isomer, unassigned) [878 (Isomer 1)] | < 2000 nM | 
